The supplement of paper PMC7840683

Tested on: HepaRG
Test: LDH release cytotoxicity, % of total lysis control; higher = more cytotoxic
Details: 48 h
In short: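 Single-lot HepaRG cells on collagen I-coated 96-well plates were exposed for 48 h in duplicate, in serum-free induction medium with 0.5% DMSO, to eight-point half-log series (test chemicals top 100 µM). Total lysis wells received 0.1% Triton X, and LDH leakage into 50 µL spent medium was read as resorufin fluorescence (CytoTox-ONE, Tecan Safire). Percent cytotoxicity was normalized to on-plate vehicle and total lysis controls and averaged over the duplicates.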

O=C(NC(Cc1ccccc1)C(O)C(=O)N1CC(O)C(O)C1)c1cc2cc(Cl)ccc2[nH]1 (configuration not stated) [Ingliforib]
Details	LDH release cytotoxicity [%]
0.03162 µM	-1.12
0.1 µM	-2
0.3162278 µM	-1.41
1 µM	-0.89
3.16228 µM	-0.718
10 µM	-0.896
31.6228 µM	-1.06
100 µM	8.47

O=C1CCC(C2CCCCC2)CC1 [4-Cyclohexylcyclohexanone]
Details	LDH release cytotoxicity [%]
0.03162 µM	-0.737
0.1 µM	-0.435
0.3162278 µM	-0.827
1 µM	-0.822
3.16228 µM	-0.588
10 µM	0.479
31.6228 µM	0.205
100 µM	0.739

CCN(CC)N=O [N-Nitrosodiethylamine]
Details	LDH release cytotoxicity [%]
0.03162 µM	-0.893
0.1 µM	-0.536
0.3162278 µM	-0.901
1 µM	-0.963
3.16228 µM	-0.649
10 µM	-1.08
31.6228 µM	0.447
100 µM	0.842

C=CCCCCCCCCCCCC [1-Tetradecene]
Details	LDH release cytotoxicity [%]
0.031623 µM	-1.3
0.1 µM	-3.45
0.316228 µM	-3.94
1 µM	-4.65
3.16228 µM	-3.81
10 µM	-4.29
31.6228 µM	-4.23
100 µM	-4.05

Cc1oc2c(NC(=O)c3c(Cl)cccc3Cl)cccc2c1C(C)(C)O
Details	LDH release cytotoxicity [%]
0.03162 µM	-1.37
0.1 µM	-0.99
0.3162278 µM	-1.56
1 µM	-1.94
3.16228 µM	-2.03
10 µM	-0.5
31.6228 µM	13.1
100 µM	33.7

Oc1ccc2c(c1)OCC(N1CCC(O)(c3ccc(F)cc3)CC1)C2O (configuration not stated)
Details	LDH release cytotoxicity [%]
0.01581 µM	-1
0.05 µM	0.886
0.1581139 µM	0.0464
0.5 µM	0.111
1.5811388 µM	0.298
5 µM	0.5713
15.8114 µM	1.05
50 µM	0.322

CCN(CC)CCO [N,N-Diethylethanolamine]
Details	LDH release cytotoxicity [%]
0.03162 µM	-0.085
0.1 µM	-0.79
0.3162278 µM	-0.301
1 µM	-0.496
3.16228 µM	-0.856
10 µM	-0.12
31.6228 µM	0.244
100 µM	1.74

CCCCC(CC)CO (configuration not stated) [2-Ethyl-1-hexanol]
Details	LDH release cytotoxicity [%]
0.0320971 µM	-0.547
0.1015 µM	-0.771
0.320971 µM	-0.413
1.015 µM	-0.597
3.2097118 µM	0.185
10.15 µM	0.421
32.0971 µM	0.242
101.5 µM	0.842

CCCCc1ccc2c(n1)C(c1ccc(OC)cc1CC(C)C(=O)O)C(C(=O)O)C2c1ccc2c(c1)OCO2 (configuration not stated) [MK-547]
Details	LDH release cytotoxicity [%]
0.03162 µM	-0.553
0.1 µM	-1.23
0.3162278 µM	-0.915
1 µM	-1.66
3.16228 µM	-0.888
10 µM	-0.832
31.6228 µM	-0.204
100 µM	0.0481
